Experimental data as given in ChEMBL document CHEMBL3046716, “Design of potent human steroid 5-reductase inhibitors: 3D-QSAR CoMFA, CoMSIA and docking studies” (Med Chem Res, 2013).

Legend:
[1] = species on record: Homo sapiens; assay: Ratio of compound pIC50 to (4aR,4bS,6aS,7S,9aS,9bS,11aR)-N,N-diethyl-1,4a,6a-trimethyl-2-oxohexadecahydro-1H-indeno[5,4-f]quinoline-7-carboxamide pIC50 for human steroid 5alpha-reductase
[2] = species on record: Homo sapiens; assay: Ratio of compound IC50 to (4aR,4bS,6aS,7S,9aS,9bS,11aR)-N,N-diethyl-1,4a,6a-trimethyl-2-oxohexadecahydro-1H-indeno[5,4-f]quinoline-7-carboxamide IC50 for human steroid 5alpha-reductase

Row | Compound | pIC50 [1] | Ratio IC50 [2]
1 | CN1C(=O)CC[C@]2(C)[C@H]3CC[C@]4(C)[C@@H](C#N)CC[C@H]4[C@@H]3CC[C@@H]12 | 6.08 | 83
2 | CN1C(=O)CC[C@]2(C)[C@H]3CC[C@]4(C)[C@@H](C5=NCCO5)CC[C@H]4[C@@H]3CC[C@@H]12 | 6.96 | 11
3 | CCCCCCCNC(=O)[C@H]1CC[C@H]2[C@@H]3CC[C@H]4NC(=O)CC[C@]4(C)[C@H]3CC[C@]12C | 7.62 | 2.4
4 | CCCCCCCNC(=O)[C@H]1CC[C@H]2[C@@H]3CC[C@H]4N(C)C(=O)CC[C@]4(C)[C@H]3CC[C@]12C | 7.4 | 4
5 | CCN(CC)C(=O)[C@H]1CC[C@H]2[C@@H]3CC[C@H]4N(C)C(=O)C[C@H](C)[C@]4(C)[C@H]3CC[C@]12C | 7.16 | 7
6 | CCN(CC)C(=O)[C@@H](C)[C@H]1CC[C@H]2[C@@H]3CC[C@H]4N(C)C(=O)CC[C@]4(C)[C@H]3CC[C@]12C | 5.41 | 390
7 | CC(C)(C)OC(=O)[C@H]1CC[C@H]2[C@@H]3CC[C@H]4NC(=O)CC[C@]4(C)[C@H]3CC[C@]12C | 7.07 | 8.6
8 | C[C@]12CCC(=O)N[C@@H]1CC[C@@H]1[C@@H]2CC[C@]2(C)[C@@H](C(=O)c3ccco3)CC[C@@H]12 | 7.44 | 3.6
9 | CCN(CC)C(=O)[C@H]1CC[C@H]2[C@@H]3CC[C@H]4N(C)C(=O)[C@@H](F)C[C@]4(C)[C@H]3CC[C@]12C | 7.3 | 5
10 | CCC(C)C(=O)[C@H]1CC[C@H]2[C@@H]3CC[C@H]4NC(=O)CC[C@]4(C)[C@H]3CC[C@]12C (stereo not given in full) | 7.4 | 4
11 | CN1C(=O)CC[C@]2(C)[C@H]3CC[C@]4(C)[C@@H](C(=O)N5CCOCC5)CC[C@H]4[C@@H]3CC[C@@H]12 | 7.25 | 5.6
12 | COC(=O)[C@H]1CC[C@H]2[C@@H]3CC[C@H]4NC(=O)CC[C@]4(C)[C@H]3CC[C@]12C | 6.38 | 42
13 | C[C@]12CCC(=O)N[C@@H]1CC[C@@H]1[C@@H]2CC[C@]2(C)[C@@H](C(N)=O)CC[C@@H]12 | 5.82 | 150
14 | CCN(CC)C(=O)CNC(=O)[C@H]1CC[C@H]2[C@@H]3CC[C@H]4N(C)C(=O)CC[C@]4(C)[C@H]3CC[C@]12C | 6.96 | 11
15 | CCN(CC)C(=O)[C@H]1CC[C@H]2[C@@H]3CC[C@H]4N(C)C(=O)[C@@H](C)C[C@]4(C)[C@H]3CC[C@]12C | 7.44 | 3.6
16 | CN1C(=O)CC[C@]2(C)[C@H]3CC[C@@]4(C)[C@@H](CC[C@@]45CCCO5)[C@@H]3CC[C@@H]12 | 5.84 | 144
17 | CCN(CC)C(=O)[C@H]1CC[C@H]2[C@@H]3CC[C@H]4N(C)C(=O)[C@@H](OC)C[C@]4(C)[C@H]3CC[C@]12C | 6.82 | 15

Row | Compound | pIC50 [1] | Ratio IC50 [2]
18 | CCN(CC)C(=O)[C@H]1CC[C@H]2[C@@H]3CC[C@H]4N(C)C(=O)[C@@H]5C[C@@H]5[C@]4(C)[C@H]3CC[C@]12C | 7.89 | 1.3
19 | CN1C(=O)CC[C@]2(C)[C@H]3CC[C@]4(C)[C@@H](C5=NC(C)(C)CO5)CC[C@H]4[C@@H]3CC[C@@H]12 | 5.9 | 125
20 | CCN(CCO)C(=O)[C@H]1CC[C@H]2[C@@H]3CC[C@H]4N(C)C(=O)CC[C@]4(C)[C@H]3CC[C@]12C | 7.52 | 3
21 | CC(C)(C)CC(C)(C)NC(=O)[C@H]1CC[C@H]2[C@@H]3CC[C@H]4NC(=O)CC[C@]4(C)[C@H]3CC[C@]12C | 8.25 | 0.56
22 | CCN(CC)C(=O)C[C@H]1CC[C@H]2[C@@H]3CC[C@H]4N(C)C(=O)CC[C@]4(C)[C@H]3CC[C@]12C | 7.7 | 2
23 | CC(C)N(C(=O)[C@H]1CC[C@H]2[C@@H]3CC[C@H]4NC(=O)CC[C@]4(C)[C@H]3CC[C@]12C)C(C)C | 7.82 | 1.5
24 | CN1C(=O)CC[C@]2(C)[C@H]3CC[C@]4(C)[C@@H](C(=O)c5ccco5)CC[C@H]4[C@@H]3CC[C@@H]12 | 7.7 | 2
25 | CC(C)(C)NC(=O)[C@H]1CC[C@H]2[C@@H]3CC[C@H]4NC(=O)CC[C@]4(C)[C@H]3CC[C@]12C | 7.77 | 1.7
26 | C[C@]12CCC(=O)N[C@@H]1CC[C@@H]1[C@@H]2CC[C@@]2(C)[C@H]1CC[C@@]21CCCO1 | 5.13 | 735
27 | CCN(CC)C(=O)[C@H]1CC[C@H]2[C@@H]3CC[C@H]4N(C)C(=O)C(OC)(OC)C[C@]4(C)[C@H]3CC[C@]12C | 6.55 | 28
28 | CCOC(=O)C[C@H]1CC[C@H]2[C@@H]3CC[C@H]4N(C)C(=O)CC[C@]4(C)[C@H]3CC[C@]12C | 6.54 | 29
29 | CCN(CC)C(=O)[C@H]1CC[C@H]2[C@@H]3CC[C@H]4N(C)C(=O)[C@@H]5O[C@@H]5[C@]4(C)[C@H]3CC[C@]12C | 6.2 | 63
30 | CC(C)CC(=O)[C@H]1CC[C@H]2[C@@H]3CC[C@H]4NC(=O)CC[C@]4(C)[C@H]3CC[C@]12C | 7.38 | 4.2
31 | CCN(CC)C(=O)[C@H]1CC[C@H]2[C@@H]3CC[C@H]4NC(=O)CC[C@]4(C)[C@H]3CC[C@]12C | 7.92 | 1.2
32 | CCN(CC)C(=O)/C=C1/CC[C@H]2[C@@H]3CC[C@H]4N(C)C(=O)CC[C@]4(C)[C@H]3CC[C@]12C | 7.82 | 1.5
33 | CCN(CC)C(=O)CC[C@@H](C)[C@H]1CC[C@H]2[C@@H]3CC[C@H]4N(C)C(=O)CC[C@]4(C)[C@H]3CC[C@]12C | 6.57 | 27
34 | COC(CNC(=O)[C@H]1CC[C@H]2[C@@H]3CC[C@H]4NC(=O)CC[C@]4(C)[C@H]3CC[C@]12C)OC | 6.7 | 20

Results, then the compound that gave them:

Row | pIC50 [1] | Ratio IC50 [2] | Compound
35 | 8.09 | 0.82 | CC(C)N(C(=O)[C@H]1CC[C@H]2[C@@H]3CC[C@H]4N(C)C(=O)CC[C@]4(C)[C@H]3CC[C@]12C)C(C)C
36 | 7.4 | 4 | CC(C)NC(=O)[C@H]1CC[C@H]2[C@@H]3CC[C@H]4N(C)C(=O)CC[C@]4(C)[C@H]3CC[C@]12C
37 | 7.7 | 2 | CN1C(=O)CC[C@]2(C)[C@H]3CC[C@]4(C)[C@@H](C(=O)NC(C)(C)CO)CC[C@H]4[C@@H]3CC[C@@H]12
38 | 5.84 | 143 | COC(=O)[C@H](C)[C@H]1CC[C@H]2[C@@H]3CC[C@H]4N(C)C(=O)CC[C@]4(C)[C@H]3CC[C@]12C
39 | 7.03 | 9.4 | CCNC(=O)[C@H]1CC[C@H]2[C@@H]3CC[C@H]4N(C)C(=O)CC[C@]4(C)[C@H]3CC[C@]12C
40 | 8.28 | 0.52 | CN1C(=O)CC[C@]2(C)[C@H]3CC[C@]4(C)[C@@H](C(=O)NC(C)(C)CC(C)(C)C)CC[C@H]4[C@@H]3CC[C@@H]12
41 | 6.55 | 28 | CNC(=O)[C@H]1CC[C@H]2[C@@H]3CC[C@H]4N(C)C(=O)CC[C@]4(C)[C@H]3CC[C@]12C
42 | 8 | 1 | CCN(CC)C(=O)[C@H]1CC[C@H]2[C@@H]3CC[C@H]4N(C)C(=O)CC[C@]4(C)[C@H]3CC[C@]12C
43 | 6.77 | 17 | COC(=O)[C@H]1CC[C@H]2[C@@H]3CC[C@H]4N(C)C(=O)CC[C@]4(C)[C@H]3CC[C@]12C
44 | 6.82 | 15 | C[C@H](CO)[C@H]1CC[C@H]2[C@@H]3CC[C@H]4N(C)C(=O)CC[C@]4(C)[C@H]3CC[C@]12C
45 | 6.57 | 27 | CC(=O)[C@H]1CC[C@H]2[C@@H]3CC[C@H]4N(C)C(=O)CC[C@]4(C)[C@H]3CC[C@]12C
46 | 7.57 | 2.7 | CC(C)CC(=O)[C@H]1CC[C@H]2[C@@H]3CC[C@H]4N(C)C(=O)CC[C@]4(C)[C@H]3CC[C@]12C
47 | 6.77 | 17 | CC(O)[C@H]1CC[C@H]2[C@@H]3CC[C@H]4N(C)C(=O)CC[C@]4(C)[C@H]3CC[C@]12C (stereo not given in full)
48 | 7.96 | 1.1 | CN1C(=O)CC[C@]2(C)[C@H]3CC[C@]4(C)[C@@H](C(=O)NC(C)(C)C)CC[C@H]4[C@@H]3CC[C@@H]12
49 | 7.62 | 2.4 | CCCCCNC(=O)[C@H]1CC[C@H]2[C@@H]3CC[C@H]4N(C)C(=O)CC[C@]4(C)[C@H]3CC[C@]12C
50 | 6.33 | 47 | CN1C(=O)CC[C@]2(C)[C@H]3CC[C@]4(C)[C@@H](C(=O)SC(C)(C)C)CC[C@H]4[C@@H]3CC[C@@H]12
